Measured values reported in patent US8901307B2, “Chemical compounds 251” (AstraZeneca AB, priority 2008, dated 2014).
Counter-ions that a name gives are not always drawn. Like-named read-outs stand apart in the source and are kept apart here.

Columns and labels:
[1] = biological target: T1, human His-PIM1 [2-313] (Homo sapiens, UniProt P11309); assay: PIM1 in-vitro mobility shift assay (Caliper LC3000, FL-Ahx-Bad phosphorylation); format: biochemical; conditions: 1.5 h, read-out: PIM1 % I at 0.3 uM
T1 construct: purified human His-PIM1 [2-313] enzyme; His (N); purchased University of Dundee, Scotland; host or cells: baculovirus system
From the text: PIM1 In-Vitro Mobility Shift Assay
(§1) One may determine the activity of purified human His-PIM1 [2-313] enzyme in-vitro using a mobility shift assay on a Caliper LC3000 reader (Caliper, Mass.), which measures fluorescence of a phosphorylated and unphosphorylated FL-Ahx-Bad (FITC-(AHX)RSRHSSYPAGT-COOH, Primm 200606-00289, Primm Biotech, Mass.) and calculates a ratiometric value to determine percent turnover. One may express PIM1 (University of Dundee, Scotland) in baculovirus system with a typical yield of >85% purity.
(§2) One determines phosphorylation of the FL-Ahx-Bad in the presence and absence of the compound of interest. One preincubates 5 µl of Enzyme/Substrate/adenosine triphosphate (ATP) mix consisting of 2.4 nM PIM1, 3.6 uM FL-Ahx-Bad, and 240 uM ATP in 1.2× buffer with 2 ul of compound for 20 minutes at 25° C. One initiates reactions with 5 ul of Metal mix consisting of 24 mM MgCl2 in 1.2× buffer and incubated at 25° C. for 90 minutes and stops the reactions by addition of 5 ul of Stop mix consisting of 100 mM HEPES, 121 mM ethylenediamine tetraacetic acid, 0.8% Coatin Reagent 3 (Caliper, Mass.), and 0.01% Tween. One detects phosphorylated and unphosphorylated substrate by a Caliper LC3000 reader (Caliper, Mass.) in the presence of separation buffer consisting of 100 mM HEPES, 16 mM ethylenediamine tetraacetic acid, 0.1% Coatin Reagent 3 (Caliper, Mass.), 0.015% Brij-35, 5% DMSO, and 5.6 mM MgCl2. One may use the following separation conditions for a Caliper LC3000: −1.0 PSI, −2000 V upstream voltage, −400 V downstream voltage, 0.2 second sample sip, 45 second post sip, 10% laser strength.
The table 1 below provides the percent inhibition of PIM1 at 0.3 micromolar for Examples provided herein. Several examples were tested more than once. Variations in the experimental outcomes, negative values, or values over 100% inhibition are presumably due to experimental error inherent in the assay.

[2] = biological target: T2, human His-PIM2 [23-299] (Homo sapiens, UniProt Q9P1W9); assay: PIM2 in-vitro mobility shift assay (Caliper LC3000, FL-Ahx-Bad phosphorylation); format: biochemical; conditions: 1.5 h; percent inhibition at 0.3 uM compound; read-out: PIM2 % I at 0.3 uM
T2 construct: purified human His-PIM2 [23-299] enzyme; His (N); host or cells: E. coli
From the text: PIM2 In-Vitro Mobility Shift Assay
as §1, with “His-PIM2 [23-299]” for “His-PIM1 [2-313]”, “PIM2 (produced at AstraZeneca, R&D Boston)” for “PIM1 (University of Dundee, Scotland)”, “E. coli cells” for “baculovirus system”, “>90%” for “>85%”
as §2, with “5 uL” for “5 µl”, “and 12” for “and 240”, “5 uL” for “5 ul”, “and incubates” for “and incubated”, “90 minutes. One” for “90 minutes and”, “stops” for “stops the”

[3] = percent inhibition at 0.3 uM compound

T1 sequence (P11309 2-313): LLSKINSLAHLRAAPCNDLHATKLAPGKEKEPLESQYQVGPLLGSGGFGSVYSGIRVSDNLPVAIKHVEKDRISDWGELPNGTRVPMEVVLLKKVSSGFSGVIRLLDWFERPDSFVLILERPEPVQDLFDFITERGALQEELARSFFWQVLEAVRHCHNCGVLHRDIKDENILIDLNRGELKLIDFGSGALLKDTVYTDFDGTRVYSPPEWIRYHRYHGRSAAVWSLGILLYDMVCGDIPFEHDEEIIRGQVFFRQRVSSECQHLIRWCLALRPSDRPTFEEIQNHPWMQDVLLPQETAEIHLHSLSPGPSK
T2 sequence (Q9P1W9 23-299): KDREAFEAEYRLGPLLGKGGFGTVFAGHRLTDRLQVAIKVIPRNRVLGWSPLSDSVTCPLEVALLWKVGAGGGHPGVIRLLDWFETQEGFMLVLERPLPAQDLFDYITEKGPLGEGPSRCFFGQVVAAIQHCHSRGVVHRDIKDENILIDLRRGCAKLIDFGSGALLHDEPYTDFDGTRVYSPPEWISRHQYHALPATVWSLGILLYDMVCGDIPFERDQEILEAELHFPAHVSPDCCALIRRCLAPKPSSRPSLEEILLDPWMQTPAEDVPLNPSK

SMILES | inhibition at 0.3 µM [1, 3] [%] | inhibition at 0.3 µM [2] [%] | inhibition at 0.3 µM [1] [%]
COc1cc(/C=C2\SC(=O)NC2=O)c(N2CCC(CO)CC2)cc1OC [Example 41, (5Z)-5-{2-[4-(hydroxymethyl)piperidin-1-yl]-4,5-dimethoxybenzylidene}-1-,3-thiazolidine-2,4-dione] | 74 | 25.1 | 
O=C1NC(=O)/C(=C/c2cnc3[nH]ccc3c2)S1 [Example 80, (5Z)-5-(1H-pyrrolo[2,3-b]pyridin-5-ylmethylene)-1,3-thiazolidine-2,4-dione] | < 5 |  | 
CC(=O)N1CCN(c2ccccc2/C=C2\SC(=O)NC2=O)CC1 [Example 130, (5Z)-5-[2-(4-acetylpiperazin-1-yl)benzylidene]-1,3-thiazolidine-2,4-dione] |  | 45.5 | 66.2
COc1cc(/C=C2\SC(=O)NC2=O)c(N2CCCC2)cc1OC [Example 46, (5Z)-5-(4,5-dimethoxy-2-pyrrolidin-1-ylbenzylidene)-1,3-thiazolidine-2,4-dione] | 13.4 | 15.7 | 
O=C1NC(=O)/C(=C/c2cccc(N3CCOCC3)c2)S1 [Example 83, (5Z)-5-(3-morpholin-4-ylbenzylidene)-1,3-thiazolidine-2,4-dione trifluoroacetate] | 34 |  | 
CN1CCN(c2c(Cl)cc(C(F)(F)F)cc2/C=C2\SC(=O)NC2=O)CC1 [Example 32] | 94 | 31.9 | 
N[C@@H]1CCCN(c2c(Cl)cc(C(F)(F)F)cc2/C=C2\SC(=O)NC2=O)C1 [Example 2] | > 95 | > 95 | 
CN(C)[C@H]1CCN(c2c(F)cccc2C=C2SC(=O)NC2=O)C1 [Example 84N, (S)-5-(2-(3-(dimethylamino)pyrrolidin-1-yl)-3-fluorobenzylidene)thiazolidine-2,4-dione] | 92.8 | 81.4 | 
O=C1NC(=O)/C(=C/c2cc(C(F)(F)F)cc(Cl)c2N2CCOCC2)S1 [Example 29] | 92.8 |  | 
CN(C)CCCOc1ccccc1/C=C1\SC(=O)NC1=O [Example 81, (5Z)-5-{2-[3-(dimethylamino)propoxy]benzylidene}-1,3-thiazolidine-2,4-dione] | < 5 |  | 
O=C1NC(=O)C(=Cc2c[nH]c3ccccc23)S1 (stereo in doubt) [Example 67, (Z)-5-((1H-indol-3-yl)methylene)thiazolidine-2,4-dione] |  | < 5 | 

Second part, led by results:

inhibition at 0.3 µM [1, 3] [%] | inhibition at 0.3 µM [2] [%] | SMILES | inhibition at 0.3 µM [1] [%]
> 95 | > 95 | N[C@@H]1CCCN(c2ccccc2/C=C2\SC(=O)NC2=O)C1 [Example 122W, (R,Z)-5-(2-(3-aminopiperidin-1-yl)benzylidene)thiazolidine-2,4-dione hydrochloride] | 
< 5 | < 5 | CN(C)[C@H]1CCN(c2cccc(Cl)c2C=C2SC(=O)NC2=O)C1 [Example 84O, (S)-5-(2-chloro-6-(3-(dimethylamino)pyrrolidin-1-yl)benzylidene)thiazolidine-2,4-dione] | 
> 95 | > 95 | COc1cc(/C=C2\SC(=O)NC2=O)c(N2CCC(CN)C2)cc1OC (centres unmarked) [Example 99, (Z)-5-(2-(3-(aminomethyl)pyrrolidin-1-yl)-4,5-dimethoxybenzylidene)thiazolidine-2,4-dione hydrochloride] | 
6.6 | 16.4 | O=C1NC(=O)/C(=C/c2ccccc2N2CCN(C(=O)C3CCNCC3)CC2)S1 [Example 91, (Z)-5-(2-(4-(piperidine-4-carbonyl)piperazin-1-yl)benzylidene)thiazolidine-2,4-dione] | 
90.9 | 90.7 | NCc1cccc(C(=O)N2CCN(c3ccccc3/C=C3\SC(=O)NC3=O)CC2)c1 [Example 110, (Z)-5-(2-(4-(3-(aminomethyl)benzoyl)piperazin-1-yl)benzylidene)thiazolidine-2,4-dione hydrochloride] | 
27.1 | < 5 | COc1cc(/C=C2\SC(=O)NC2=O)c(N2CCC(NC(C)=O)C2)cc1OC (centres unmarked) [Example 131A] | 
